Reference: PubChem BioAssay AID651764 (The Scripps Research Institute Molecular Screening Center, 2012)
The source made the active and inactive calls. How the calls were made is not given here.

Target: Delta-type opioid receptor (Homo sapiens) (UniProt P41143)
Assay: OPRD1 luminescent activation counter-screen – cell-based, luminescence, dose response, set 2, counter-screen for OPRM1-OPRD1 heterodimer activator project, late-stage follow-up (AID 651764)
Conditions: OPRD1 cell-based luminescence activation counterscreen

Delta-type opioid receptor (Homo sapiens), sequence (P41143 whole entry, looked up): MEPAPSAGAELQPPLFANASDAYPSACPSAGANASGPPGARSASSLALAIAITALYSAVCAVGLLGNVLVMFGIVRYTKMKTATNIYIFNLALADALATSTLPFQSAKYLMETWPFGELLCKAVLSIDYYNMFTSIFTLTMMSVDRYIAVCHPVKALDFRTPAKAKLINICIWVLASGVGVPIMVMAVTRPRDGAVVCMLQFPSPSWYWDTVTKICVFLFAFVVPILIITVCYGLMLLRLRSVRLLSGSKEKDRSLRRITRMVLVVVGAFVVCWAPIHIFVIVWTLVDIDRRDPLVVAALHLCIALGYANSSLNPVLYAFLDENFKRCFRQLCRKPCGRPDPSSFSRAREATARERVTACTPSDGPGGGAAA

| Structure (SMILES) | EC50 |
| --- | --- |
| CCOC(=O)C1(CCOC)CCN(Cc2ccc(N(C)c3ccccc3)cc2)CC1 | > 50 µM (inactive) |
| CCOC(=O)C1CCN(C(=O)c2ccc(N(C)C)cc2)CC1 | > 50 µM (inactive) |
| CCOC(=O)C1(CCc2ccccc2)CCN(Cc2ccc(O)cc2)CC1 | > 50 µM (inactive) |
| CCOC(=O)C1CCCCN1Cc1ccc(NC(C)=O)cc1 (stereo not drawn) | > 50 µM (inactive) |
| C=Cc1ccc(C(=O)N2CCC(CCc3ccccc3)(C(=O)OCC)CC2)cc1 | > 50 µM (inactive) |
| O=C(O)C1CCCCC1C(=O)Nc1ccc(CN2CCCCC2)cc1 (stereo not drawn) | > 50 µM (inactive) |
| CCOC(=O)C1(CCc2ccccc2)CCN(Cc2ccc(C#CC(C)(C)O)cc2)CC1 | > 50 µM (inactive) |
| CCOC(=O)C1CCN(Cc2ccc(NC(C)=O)cc2)CC1 | > 50 µM (inactive) |
| CCOC(=O)C1(CC2CC2)CCN(Cc2ccc(NC(C)=O)cc2)CC1 | > 50 µM (inactive) |
| CCOC(=O)C1CCN(Cc2ccc(N(C)C)cc2)CC1 | > 50 µM (inactive) |
| CCOC(=O)C1(CC2CC2)CCN(C(=O)c2ccc(N3CCCCC3)cc2)CC1 | > 50 µM (inactive) |
| CCOC(=O)C1(CCc2ccccc2)CCN(Cc2c(O)cccc2OC)CC1 | > 50 µM (inactive) |
| CCOC(=O)C1(CCc2ccccc2)CCN(C(=O)Nc2ccc(C)cc2C)CC1 | > 50 µM (inactive) |
| CCOC(=O)C1(Cc2ccc(OC)cc2)CCN(C(=O)c2ccc(N(C)C)cc2)CC1 | > 50 µM (inactive) |
| CCOC(=O)C1(CCc2ccccc2)CCN(Cc2ccncc2)CC1 | > 50 µM (inactive) |
| C=Cc1ccc(C(=O)N2CCC(CCCc3ccccc3)(C(=O)OCC)CC2)cc1 | > 50 µM (inactive) |
| CCOC(=O)C1CCN(CCC(=O)Nc2ccc(C)cc2)CC1 | > 50 µM (inactive) |

Next, values leading:

| EC50 | Structure (SMILES) |
| --- | --- |
| > 50 µM (inactive) | CCOC(=O)C1(CCc2ccccc2)CCN(Cc2ccc(OC)cc2)CC1 |
| > 50 µM (inactive) | CCOC(=O)C1(CCc2ccccc2)CCN(Cc2ccc(C(=O)OC)cc2)CC1 |
| > 50 µM (inactive) | CCOC(=O)C1(Cc2cccc(OC)c2)CCCN(Cc2ccc(NC(C)=O)cc2)C1 (stereo not drawn) |
| > 50 µM (inactive) | CCOC(=O)C1(CCc2ccccc2)CCCN(Cc2ccc(N3CCNC3=O)cc2)C1 (stereo not drawn) |
| > 50 µM (inactive) | CC(=O)Nc1ccc(CN2CCCC(CO)(CCc3ccccc3)C2)cc1 (stereo not drawn) |
| > 50 µM (inactive) | CCOC(=O)C1(Cc2ccccc2C)CCCN(Cc2ccc(NC(C)=O)cc2)C1 (stereo not drawn) |
| > 50 µM (inactive) | CCOC(=O)C1(CCOc2ccccc2)CCCN(Cc2ccc(NC(C)=O)cc2)C1 (stereo not drawn) |
| > 50 µM (inactive) | CCOC(=O)C1(CCOC)CCN(Cc2ccc(NC(C)=O)cc2)CC1 |
| > 50 µM (inactive) | CCOC(=O)C1(CCOC)CCCN(Cc2ccc(NC(C)=O)cc2)C1 (stereo not drawn) |
| > 50 µM (inactive) | CCOC(=O)C1(Cc2ccccc2)CCCN(Cc2ccc(NC(C)=O)cc2)C1 (stereo not drawn) |
| 0.321 µM | CCOC(=O)C1(Cc2ccccc2Cl)CCN(Cc2ccc(NC(C)=O)cc2)CC1 |
